Results: publication PMC6424464, “Multiple functional neurosteroid binding sites on GABAA receptors” (PLoS Biology, 2019)

How the values were obtained:
[1] = target: T1, α1β3 GABAA receptor (β3 subunit) (Homo sapiens, UniProt P14867+P28472); experiment: competition of KK123, KK200 and KK202 photolabeling on β[…]; [3H]muscimol binding enhancement; parameters: gene GABRB3; α1His-FLAG β3 receptor in HEK-293 cell membranes; with GABAA receptor α1 subunit (GABRA1)
T1 sequence (P28472 26-473): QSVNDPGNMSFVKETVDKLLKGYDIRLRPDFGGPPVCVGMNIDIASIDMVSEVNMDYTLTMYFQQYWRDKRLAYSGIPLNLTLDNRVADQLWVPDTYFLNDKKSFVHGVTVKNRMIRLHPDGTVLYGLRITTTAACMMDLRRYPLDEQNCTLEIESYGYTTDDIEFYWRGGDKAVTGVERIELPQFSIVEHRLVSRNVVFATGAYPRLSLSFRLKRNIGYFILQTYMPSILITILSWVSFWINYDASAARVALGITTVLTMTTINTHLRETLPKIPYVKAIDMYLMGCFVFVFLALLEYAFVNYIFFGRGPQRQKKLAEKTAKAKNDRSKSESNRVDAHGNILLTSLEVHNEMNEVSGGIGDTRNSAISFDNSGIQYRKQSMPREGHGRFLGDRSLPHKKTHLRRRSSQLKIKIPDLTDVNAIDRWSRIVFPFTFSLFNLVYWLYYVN
T1 sequence (P14867 28-456): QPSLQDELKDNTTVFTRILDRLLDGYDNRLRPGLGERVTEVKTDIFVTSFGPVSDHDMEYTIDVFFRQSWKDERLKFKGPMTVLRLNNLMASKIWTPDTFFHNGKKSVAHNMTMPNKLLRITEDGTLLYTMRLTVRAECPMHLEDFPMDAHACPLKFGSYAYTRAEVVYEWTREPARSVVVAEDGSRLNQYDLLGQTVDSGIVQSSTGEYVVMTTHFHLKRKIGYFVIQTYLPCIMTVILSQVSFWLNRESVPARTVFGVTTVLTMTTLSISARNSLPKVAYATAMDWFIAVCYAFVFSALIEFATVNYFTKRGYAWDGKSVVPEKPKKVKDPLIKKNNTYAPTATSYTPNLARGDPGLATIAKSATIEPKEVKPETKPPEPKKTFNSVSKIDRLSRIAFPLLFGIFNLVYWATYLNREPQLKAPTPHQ

[2] = target: T2, GABAA receptor α1 subunit (Homo sapiens, UniProt P14867); experiment: competition of KK123 photolabeling at α1-Y415; [3H]muscimol binding enhancement; oocyte electrophysiology with site mutants; parameters: gene GABRA1; α1His-FLAG β3 receptor in HEK-293 cell membranes; with GABAA receptor β3 subunit (GABRB3)
T2 sequence (P14867 28-456): T1 sequence (P14867 28-456)
T2 sequence (P28472 26-473 partner): T1 sequence (P28472 26-473)

[3] = target: T1, α1β3 GABAA receptor (β3 subunit); experiment: two-electrode voltage clamp, potentiation and direct activation; format: cell-based; parameters: gene GABRB3; α1β3 receptors expressed in X. laevis oocytes; with GABAA receptor α1 subunit (GABRA1)
[4] = target: T3, GABAA receptor β3 subunit (Homo sapiens, UniProt P28472); experiment: biochemical
T3 construct: gene GABRB3

[5] = target: T2, GABAA receptor α1 subunit; experiment: biochemical; parameters: gene GABRA1
[6] = target: T4, GABAA receptor β3 subunit (Homo sapiens, UniProt P28472); experiment: photoaffinity labeling with middle-down MS, competed by allopregnanolone; EC50 from [3H]muscimol binding enhancement (whole α[…]β[…] receptor)
T4 construct: gene GABRB3; α1His-FLAG β3 receptor in HEK-293 cell membranes; adduct in TM3 peptide 278-313; with GABAA receptor α1 subunit (GABRA1)
T4 sequence (P28472 26-473): T1 sequence (P28472 26-473)
T4 sequence (P14867 28-456 partner): T1 sequence (P14867 28-456)

[7] = target: T5, GABAA receptor β3 subunit (Homo sapiens, UniProt P14867+P28472); experiment: as above
T5 construct: gene GABRB3; α1His-FLAG β3 receptor in HEK-293 cell membranes; adduct in TM3 peptide 280-313; with GABAA receptor α1 subunit (GABRA1)
T5 sequence (P28472 26-473): T1 sequence (P28472 26-473)
T5 sequence (P14867 28-456): T1 sequence (P14867 28-456)

[8] = target: T2, GABAA receptor α1 subunit; experiment: photoaffinity labeling ([…]) with middle-down MS; EC50 from [3H]muscimol binding enhancement (whole α[…]β[…] receptor); parameters: gene GABRA1; α1His-FLAG β3 receptor in HEK-293 cell membranes; adduct in TM4 peptide 398-423; with GABAA receptor β3 subunit (GABRB3)

Compound CC(=O)[C@H]1CC[C@H]2[C@@H]3CC[C@H]4C[C@H](O)CC[C@]4(C)[C@H]3CC[C@]12C [AlloP, 3α-hydroxy-5α-pregnan-20-one] has an EC50 [1] of 3.9 ± 5.6 µM and an EC50 [2] of 3.9 ± 5.6 µM.

For CC(C)c1cccc(C(C)C)c1O [propofol], the “two-electrode voltage clamp, potentiation and direct activation” value [3] was “Propofol action was not different between the mutant and wild-type receptors, indicating a selective effect on neurosteroid action”.

C#CCCO[C@H]1C[C@]2(C)C3CC[C@@]4(C)C(CC[C@@H]4OC)C3CC3(N=N3)C2C[C@@H]1O (some centres unmarked) [KK123] was tested, and the EC50 [4] was 1.6 ± 0.2 µM and the EC50 [5] was 1.6 ± 0.2 µM.

C#CCO[C@H]1CCC2C3CCC4C[C@H](OCc5ccc(C6(C(F)(F)F)N=N6)cc5)CC[C@]4(C)C3CC[C@@]21C (some centres unmarked) [KK202] was tested, and the EC50 [6] was 1.1 ± 0.27 µM.

With C[C@]12CC[C@@H](O)CC1CCC1C2CC[C@@]2(C)C1CC[C@@H]2OCc1ccc(C2(C(F)(F)F)N=N2)cc1 (some centres unmarked) [KK200] the EC50 [7] was 0.54 ± 0.18 µM and the EC50 [8] was 0.54 ± 0.18 µM.
